{"source": "ChEMBL document CHEMBL5143538", "about": "“Discovery, Structure Correction, and Biosynthesis of Actinopyrones, Cytotoxic Polyketides from the Deep-Sea Hydrothermal-Vent-Derived Streptomyces sp. SCSIO ZS0520” (J Nat Prod, 2022)", "assay_type_in_all_cases": "functional, cell-based", "key": {"MDA-MB-435": {"tested_on": "MDA-MB-435", "assay": "Cytotoxicity against human MDA-MB-435 cells assessed as inhibition of cell proliferation measured after 68 hrs by MTT assay", "settings": "MDA-MB-435, 68 h"}, "NCI-H460": {"tested_on": "NCI-H460", "assay": "Cytotoxicity against human NCI-H460 cells assessed as inhibition of cell proliferation measured after 68 hrs by MTT assay", "settings": "NCI-H460, 68 h"}, "MDA-MB-231": {"tested_on": "MDA-MB-231", "assay": "Cytotoxicity against human MDA-MB-231 cells assessed as inhibition of cell proliferation measured after 68 hrs by MTT assay", "settings": "MDA-MB-231, 68 h"}, "A549": {"tested_on": "A549", "assay": "Cytotoxicity against human A549 cells assessed as inhibition of cell proliferation measured after 68 hrs by MTT assay", "settings": "A549, 68 h"}, "HT-29": {"tested_on": "HT-29", "assay": "Cytotoxicity against human HT-29 cells assessed as inhibition of cell proliferation measured after 68 hrs by MTT assay", "settings": "HT-29, 68 h"}, "Huh-7": {"tested_on": "Huh-7", "assay": "Cytotoxicity against human Huh-7 cells assessed as inhibition of cell proliferation measured after 68 hrs by MTT assay", "settings": "Huh-7, 68 h"}}, "data": [{"smiles": "C/C=C(\\C)[C@@H](O)[C@@H](C)/C=C(C)/C=C/C[C@H](C)/C=C/c1oc(OC)c(C)c(=O)c1C", "values": [{"measurement": "IC50", "setting": "MDA-MB-435", "value": "> 50", "unit": "µM"}, {"measurement": "IC50", "setting": "NCI-H460", "value": "> 50", "unit": "µM"}, {"measurement": "IC50", "setting": "MDA-MB-231", "value": "> 50", "unit": "µM"}, {"measurement": "IC50", "setting": "A549", "value": "> 50", "unit": "µM"}, {"measurement": "IC50", "setting": "HT-29", "value": "> 50", "unit": "µM"}, {"measurement": "IC50", "setting": "Huh-7", "value": "> 50", "unit": "µM"}]}, {"smiles": "C/C=C(\\C)[C@@H](O)[C@@H](C)/C=C(C)/C=C/C[C@H](C)/C=C/c1oc(=O)c(C)c(O)c1C", "values": [{"measurement": "IC50", "setting": "MDA-MB-435", "value": "> 50", "unit": "µM"}, {"measurement": "IC50", "setting": "NCI-H460", "value": "> 50", "unit": "µM"}, {"measurement": "IC50", "setting": "MDA-MB-231", "value": "> 50", "unit": "µM"}, {"measurement": "IC50", "setting": "A549", "value": "> 50", "unit": "µM"}, {"measurement": "IC50", "setting": "HT-29", "value": "> 50", "unit": "µM"}, {"measurement": "IC50", "setting": "Huh-7", "value": "> 50", "unit": "µM"}]}, {"smiles": "COc1cccc2c1C(=O)c1c(O)c3c(c(O)c1C2=O)C[C@@](O)(C(=O)CO)C[C@@H]3O[C@H]1C[C@H](N)[C@@H](O)[C@H](C)O1", "note": "[EPIRUBICIN]", "values": [{"measurement": "IC50", "setting": "MDA-MB-435", "value": 0.23, "unit": "µM"}, {"measurement": "IC50", "setting": "NCI-H460", "value": 0.06, "unit": "µM"}, {"measurement": "IC50", "setting": "MDA-MB-231", "value": 1.2, "unit": "µM"}, {"measurement": "IC50", "setting": "A549", "value": 1.32, "unit": "µM"}, {"measurement": "IC50", "setting": "HT-29", "value": 3.36, "unit": "µM"}, {"measurement": "IC50", "setting": "Huh-7", "value": 9.12, "unit": "µM"}]}, {"smiles": "C/C=C(\\C)[C@@H](O)[C@@H](C)/C=C(C)/C=C/C[C@H](C)/C=C/C(=O)CC", "values": [{"measurement": "IC50", "setting": "MDA-MB-435", "value": "> 50", "unit": "µM"}, {"measurement": "IC50", "setting": "NCI-H460", "value": "> 50", "unit": "µM"}, {"measurement": "IC50", "setting": "MDA-MB-231", "value": "> 50", "unit": "µM"}, {"measurement": "IC50", "setting": "A549", "value": "> 50", "unit": "µM"}, {"measurement": "IC50", "setting": "HT-29", "value": "> 50", "unit": "µM"}, {"measurement": "IC50", "setting": "Huh-7", "value": "> 50", "unit": "µM"}]}, {"smiles": "C/C=C(\\C)[C@@H](O[C@@H]1O[C@H](CO)[C@@H](O)[C@H](O)[C@H]1O)[C@@H](C)/C=C(C)/C=C/C[C@H](C)/C=C/c1oc(OC)c(C)c(=O)c1C", "note": "(stereo in doubt)", "values": [{"measurement": "IC50", "setting": "MDA-MB-435", "value": 0.26, "unit": "µM"}, {"measurement": "IC50", "setting": "NCI-H460", "value": 0.66, "unit": "µM"}, {"measurement": "IC50", "setting": "MDA-MB-231", "value": 1, "unit": "µM"}, {"measurement": "IC50", "setting": "A549", "value": 0.75, "unit": "µM"}, {"measurement": "IC50", "setting": "HT-29", "value": 2.22, "unit": "µM"}, {"measurement": "IC50", "setting": "Huh-7", "value": 1.18, "unit": "µM"}]}]}
